From PubChem BioAssay AID248 (DTP/NCI, 2004)
Inconclusive results and toxic doses are left out. Rule as the data show it: active = T/C of 150% or more; inactive = T/C below 125%.

Tested on: L1210 leukemia ip in BDF1 mice, survival T/C
Assay: NCI In Vivo Anticancer Drug Screen. Data for tumor model L1210 Leukemia (intraperitoneal) in B6D2F1 (BDF1) mice
Conditions: endpoint: mean survival time, higher = longer survival
Outline: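 Antitumor effect is assessed in tumor-bearing animals. Survival in the compound arm is compared with a vehicle-dosed control arm and expressed as their quotient.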

[1] = dose: 240.0 mg/kg/injection, schedule: Q01DX009 (ip), vehicle: saline
[2] = dose: 100.0 mg/kg/injection, schedule: Q01DX001 (ip), vehicle: saline
[3] = dose: 200.0 mg/kg/injection, schedule: Q01DX001 (ip), vehicle: saline
[4] = dose: 75.0 mg/kg/injection, schedule: Q01DX001 (ip), vehicle: saline
[5] = dose: 100.0 mg/kg/injection, schedule: Q04DX003 (ip), vehicle: saline
[6] = dose: 200.0 mg/kg/injection, schedule: Q04DX003 (ip), vehicle: saline
[7] = dose: 400.0 mg/kg/injection, schedule: Q04DX003 (ip), vehicle: saline

Measured: T/C

O=C1c2cc3c(cc2CCC1c1ccc2c(c1)OCO2)OCO3 (centres undefined)
inactive: dose: 40.0 mg/kg/injection, schedule: Q01DX009 (ip), vehicle: saline with Tween-80 88 % of control | dose: 80.0 mg/kg/injection, schedule: Q01DX009 (ip), vehicle: saline with Tween-80 88 % of control | dose: 120.0 mg/kg/injection, schedule: Q01DX009 (ip), vehicle: saline with Tween-80 94 % of control | dose: 240.0 mg/kg/injection, schedule: Q01DX009 (ip), vehicle: saline with Tween-80 94 % of control | [1] 93 % of control | dose: 360.0 mg/kg/injection, schedule: Q01DX009 (ip), vehicle: saline with Tween-80 96 % of control | dose: 360.0 mg/kg/injection, schedule: Q01DX009 (ip), vehicle: saline 96 % of control | dose: 545.0 mg/kg/injection, schedule: Q01DX009 (ip), vehicle: saline 91 % of control

CCCCC(=O)N/N=C/c1ccccc1OC
inactive: [2] 102 % of control | [3] 104 % of control

COc1cc(C=Nc2cc(Cl)c(Cl)c(Cl)c2)ccc1N(CCCl)CCCl
inactive: dose: 15.0 mg/kg/injection, schedule: Q01DX001 (ip), vehicle: carboxymethylcellulose (CMC) 123 % of control | dose: 30.0 mg/kg/injection, schedule: Q01DX001 (ip), vehicle: carboxymethylcellulose (CMC) 121 % of control

[O-]c1nn(-c2ccccc2)c2cccc[n+]12
inactive: [4] 111 % of control

COc1ccc(NC(=O)Nc2ccccc2Cl)cc1
inactive: dose: 100.0 mg/kg/injection, schedule: Q01DX009 (ip), vehicle: Klucel (hydroxypropylcellulose) (HPC) 96 % of control | dose: 100.0 mg/kg/injection, schedule: Q04DX003 (ip), vehicle: Klucel (hydroxypropylcellulose) (HPC) 90 % of control | dose: 200.0 mg/kg/injection, schedule: Q01DX009 (ip), vehicle: Klucel (hydroxypropylcellulose) (HPC) 95 % of control | dose: 200.0 mg/kg/injection, schedule: Q04DX003 (ip), vehicle: Klucel (hydroxypropylcellulose) (HPC) 92 % of control | dose: 400.0 mg/kg/injection, schedule: Q01DX009 (ip), vehicle: Klucel (hydroxypropylcellulose) (HPC) 91 % of control | dose: 400.0 mg/kg/injection, schedule: Q04DX003 (ip), vehicle: Klucel (hydroxypropylcellulose) (HPC) 90 % of control

NCc1c[nH]c2ccccc12
inactive: dose: 44.0 mg/kg/injection, schedule: Q01DX Z (ip), vehicle: water 107 % of control | dose: 66.0 mg/kg/injection, schedule: Q01DX Z (ip), vehicle: water 105 % of control | [2] 95 % of control | dose: 100.0 mg/kg/injection, schedule: Q01DX Z (ip), vehicle: water 105 % of control | [5] 98 % of control | dose: 150.0 mg/kg/injection, schedule: Q01DX Z (ip), vehicle: water 105 % of control | [3] 92 % of control | [6] 95 % of control | dose: 400.0 mg/kg/injection, schedule: Q01DX001 (ip), vehicle: saline 89 % of control | [7] 88 % of control

C1CC2CCCC(C1)S2
inactive: [4] 102 % of control | dose: 150.0 mg/kg/injection, schedule: Q01DX001 (ip), vehicle: saline 100 % of control | dose: 300.0 mg/kg/injection, schedule: Q01DX001 (ip), vehicle: saline 96 % of control

O=[N+]([O-])C(CO)(CO)CO
inactive: [5] 104 % of control | [6] 101 % of control | [7] 101 % of control

CC1CCCN(C(=O)Nc2ccccc2)C1 (centres undefined)
inactive: dose: 100.0 mg/kg/injection, schedule: Q04DX002 (ip), vehicle: saline 104 % of control | dose: 200.0 mg/kg/injection, schedule: Q04DX002 (ip), vehicle: saline 115 % of control | dose: 400.0 mg/kg/injection, schedule: Q04DX002 (ip), vehicle: saline 96 % of control

Nc1ncnc(N)c1NC(=O)c1ccc(OCCOc2ccccc2)c(Cl)c1
inactive: dose: 25.0 mg/kg/injection, schedule: Q04DX003 (ip), vehicle: saline with Tween-80 89 % of control | dose: 50.0 mg/kg/injection, schedule: Q04DX003 (ip), vehicle: saline with Tween-80 93 % of control | dose: 100.0 mg/kg/injection, schedule: Q04DX003 (ip), vehicle: saline with Tween-80 98 % of control

COc1cc2cnc3c4cc(OC)c(OC)cc4ccc3c2cc1OC
inactive: dose: 80.0 mg/kg/injection, schedule: Q01DX009 (ip), vehicle: saline 88 % of control | dose: 120.0 mg/kg/injection, schedule: Q01DX009 (ip), vehicle: saline 90 % of control | [1] 91 % of control
